Measurements from the supplement of paper PMC10307832.

Legend:
Assay in all cases: relative viability (nuclei count vs DMSO), 5 days (fraction); higher = more cells survive
[1] = compound: COC1=CC=C(C=C1)CN2C=CC3=C2C=C(C=C3)C(=O)NO + N=C(N)NC(=N)NCCc1ccccc1 [Phenformin] (partner 250 µM)
Method in brief: (§1)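 Lung cancer cell lines in 1536-well plates were dosed by pin tool the day after seeding, either with one drug alone or with a fixed anchor-drug dose plus five library-drug doses (not always all listed) in √10 steps. After 5 days, cells were fixed and their nuclei stained in one step (final 0.05% Triton X-100, 1% formaldehyde, 1 ug/ml Hoechst), then counted on 4× images. Relative viability is the nuclei count in treated wells divided by that in vehicle wells. Values are medians of duplicate plates.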

[2] = compound: C[C@]1(c2nc3c(C(N)=O)cccc3[nH]2)CCCN1 [Veliparib] + CC(=O)Nc1cccc(-n2c(=O)n(C3CC3)c(=O)c3c(Nc4ccc(I)cc4F)n(C)c(=O)c(C)c32)c1 [Trametinib] (partner 0.02 µM)
Method in brief: as §1

[3] = compound: C[C@]1(c2nc3c(C(N)=O)cccc3[nH]2)CCCN1 [Veliparib] + CS(=O)(=O)N1CCN(Cc2cc3nc(-c4cccc5[nH]ncc45)nc(N4CCOCC4)c3s2)CC1 [Pictilisib] (partner 1 µM)
Method in brief: as §1

[4] = compound: C[C@]1(c2nc3c(C(N)=O)cccc3[nH]2)CCCN1 [Veliparib] + O=C(CCCCCCC(=O)Nc1ccccc1)NO [Vorinostat] (partner 1 µM)
Method in brief: as §1

NCI-H2023 was tested, and the relative viability ([1]; first compound 0.08 µM) was 0.38, the relative viability ([1]; first compound 0.253 µM) was 0.409 and the relative viability ([1]; first compound 0.8 µM) was 0.383. It also gave a relative viability ([1]; first compound 2.53 µM) of 0.392, a relative viability ([1]; first compound 8 µM) of 0.299 and a relative viability ([2]; first compound 0.06325 µM) of 0.636. For the same cell line, the relative viability ([2]; first compound 0.2 µM) was 0.563, the relative viability ([2]; first compound 0.6325 µM) was 0.563 and the relative viability ([2]; first compound 2 µM) was 0.477. The relative viability ([3]; first compound 0.02 µM) was 0.196, the relative viability ([3]; first compound 0.06325 µM) was 0.238 and the relative viability ([3]; first compound 0.2 µM) was 0.251. For the same cell line, the relative viability ([3]; first compound 0.6325 µM) was 0.209, the relative viability ([3]; first compound 2 µM) was 0.224 and the relative viability ([4]; first compound 0.06325 µM) was 0.536. It also gave a relative viability ([4]; first compound 0.2 µM) of 0.581, a relative viability ([4]; first compound 0.6325 µM) of 0.472 and a relative viability ([4]; first compound 2 µM) of 0.48.

NCI-H2085 was tested, and the relative viability ([1]; first compound 0.08 µM) was 0.739, the relative viability ([1]; first compound 0.253 µM) was 0.758 and the relative viability ([1]; first compound 0.8 µM) was 0.84. It also gave a relative viability ([1]; first compound 2.53 µM) of 0.722, a relative viability ([1]; first compound 8 µM) of 0.647 and a relative viability ([2]; first compound 0.02 µM) of 0.553. For the same cell line, the relative viability ([2]; first compound 0.06325 µM) was 0.494, the relative viability ([2]; first compound 0.2 µM) was 0.615 and the relative viability ([2]; first compound 0.6325 µM) was 0.532. For the same cell line, the relative viability ([2]; first compound 2 µM) was 0.556, the relative viability ([3]; first compound 0.02 µM) was 0.468 and the relative viability ([3]; first compound 0.06325 µM) was 0.463. It also gave a relative viability ([3]; first compound 0.2 µM) of 0.39, a relative viability ([3]; first compound 0.6325 µM) of 0.415 and a relative viability ([3]; first compound 2 µM) of 0.396. The relative viability ([4]; first compound 0.02 µM) was 0.601, the relative viability ([4]; first compound 0.06325 µM) was 0.778 and the relative viability ([4]; first compound 0.2 µM) was 0.753. The relative viability ([4]; first compound 0.6325 µM) was 0.763 and the relative viability ([4]; first compound 2 µM) was 0.756.

Cell Line NCI-H2087 has a relative viability ([1]; first compound 0.08 µM) of 0.396, a relative viability ([1]; first compound 0.253 µM) of 0.448 and a relative viability ([1]; first compound 0.8 µM) of 0.442. The relative viability ([1]; first compound 2.53 µM) was 0.404, the relative viability ([1]; first compound 8 µM) was 0.374 and the relative viability ([2]; first compound 0.02 µM) was 0.198. It also gave a relative viability ([2]; first compound 0.06325 µM) of 0.205, a relative viability ([2]; first compound 0.2 µM) of 0.215 and a relative viability ([2]; first compound 0.6325 µM) of 0.168. It also gave a relative viability ([2]; first compound 2 µM) of 0.154, a relative viability ([3]; first compound 0.02 µM) of 0.609 and a relative viability ([3]; first compound 0.06325 µM) of 0.783. For the same cell line, the relative viability ([3]; first compound 0.2 µM) was 0.726, the relative viability ([3]; first compound 0.6325 µM) was 0.65 and the relative viability ([3]; first compound 2 µM) was 0.871. It also gave a relative viability ([4]; first compound 0.02 µM) of 0.504, a relative viability ([4]; first compound 0.06325 µM) of 0.747 and a relative viability ([4]; first compound 0.2 µM) of 0.875. For the same cell line, the relative viability ([4]; first compound 0.6325 µM) was 0.645 and the relative viability ([4]; first compound 2 µM) was 0.726.

NCI-H2126 was tested, and the relative viability ([1]; first compound 0.08 µM) was 0.516, the relative viability ([1]; first compound 0.253 µM) was 0.52 and the relative viability ([1]; first compound 0.8 µM) was 0.544. The relative viability ([1]; first compound 2.53 µM) was 0.584, the relative viability ([1]; first compound 8 µM) was 0.517 and the relative viability ([2]; first compound 0.02 µM) was 0.571. It also gave a relative viability ([2]; first compound 0.06325 µM) of 0.512, a relative viability ([2]; first compound 0.2 µM) of 0.574 and a relative viability ([2]; first compound 0.6325 µM) of 0.526. The relative viability ([2]; first compound 2 µM) was 0.531, the relative viability ([3]; first compound 0.02 µM) was 0.531 and the relative viability ([3]; first compound 0.06325 µM) was 0.452. For the same cell line, the relative viability ([3]; first compound 0.2 µM) was 0.507, the relative viability ([3]; first compound 0.6325 µM) was 0.458 and the relative viability ([3]; first compound 2 µM) was 0.537. The relative viability ([4]; first compound 0.02 µM) was 0.811, the relative viability ([4]; first compound 0.06325 µM) was 0.777 and the relative viability ([4]; first compound 0.2 µM) was 0.893. The relative viability ([4]; first compound 0.6325 µM) was 0.785 and the relative viability ([4]; first compound 2 µM) was 0.803.

In the case of NCI-H2170, the relative viability ([1]; first compound 0.08 µM) is reported as 0.407, the relative viability ([1]; first compound 0.253 µM) is reported as 0.396 and the relative viability ([1]; first compound 0.8 µM) is reported as 0.411. The relative viability ([1]; first compound 2.53 µM) was 0.419, the relative viability ([1]; first compound 8 µM) was 0.381 and the relative viability ([2]; first compound 0.02 µM) was 0.872. It also gave a relative viability ([2]; first compound 0.06325 µM) of 1.02, a relative viability ([2]; first compound 0.2 µM) of 1.01 and a relative viability ([2]; first compound 0.6325 µM) of 0.901. It also gave a relative viability ([2]; first compound 2 µM) of 0.935, a relative viability ([3]; first compound 0.02 µM) of 0.328 and a relative viability ([3]; first compound 0.06325 µM) of 0.345. It also gave a relative viability ([3]; first compound 0.2 µM) of 0.314, a relative viability ([3]; first compound 0.6325 µM) of 0.346 and a relative viability ([3]; first compound 2 µM) of 0.347. For the same cell line, the relative viability ([4]; first compound 0.02 µM) was 0.795, the relative viability ([4]; first compound 0.06325 µM) was 0.777 and the relative viability ([4]; first compound 0.2 µM) was 0.839. For the same cell line, the relative viability ([4]; first compound 0.6325 µM) was 0.786 and the relative viability ([4]; first compound 2 µM) was 0.79.

NCI-H2228 gave a relative viability ([1]; first compound 0.253 µM) of 0.381, a relative viability ([1]; first compound 0.8 µM) of 0.3 and a relative viability ([1]; first compound 2.53 µM) of 0.305. For the same cell line, the relative viability ([1]; first compound 8 µM) was 0.24, the relative viability ([2]; first compound 0.02 µM) was 0.362 and the relative viability ([2]; first compound 0.06325 µM) was 0.57. The relative viability ([2]; first compound 0.2 µM) was 0.597, the relative viability ([2]; first compound 0.6325 µM) was 0.523 and the relative viability ([2]; first compound 2 µM) was 0.368. The relative viability ([3]; first compound 0.02 µM) was 0.464, the relative viability ([3]; first compound 0.06325 µM) was 0.538 and the relative viability ([3]; first compound 0.2 µM) was 0.378. For the same cell line, the relative viability ([3]; first compound 0.6325 µM) was 0.463, the relative viability ([3]; first compound 2 µM) was 0.425 and the relative viability ([4]; first compound 0.02 µM) was 0.585. The relative viability ([4]; first compound 0.06325 µM) was 0.734, the relative viability ([4]; first compound 0.2 µM) was 0.585 and the relative viability ([4]; first compound 0.6325 µM) was 0.455. For the same cell line, the relative viability ([4]; first compound 2 µM) was 0.469.

For NCI-H2347, the relative viability ([1]; first compound 0.08 µM) was 0.382, the relative viability ([1]; first compound 0.253 µM) was 0.357 and the relative viability ([1]; first compound 0.8 µM) was 0.415. For the same cell line, the relative viability ([1]; first compound 2.53 µM) was 0.525, the relative viability ([1]; first compound 8 µM) was 0.368 and the relative viability ([2]; first compound 0.02 µM) was 0.294. For the same cell line, the relative viability ([2]; first compound 0.06325 µM) was 0.254, the relative viability ([2]; first compound 0.2 µM) was 0.26 and the relative viability ([2]; first compound 0.6325 µM) was 0.364. The relative viability ([2]; first compound 2 µM) was 0.288, the relative viability ([3]; first compound 0.02 µM) was 0.666 and the relative viability ([3]; first compound 0.06325 µM) was 0.612. The relative viability ([3]; first compound 0.2 µM) was 0.668, the relative viability ([3]; first compound 0.6325 µM) was 0.707 and the relative viability ([3]; first compound 2 µM) was 0.724. The relative viability ([4]; first compound 0.02 µM) was 0.716, the relative viability ([4]; first compound 0.06325 µM) was 0.545 and the relative viability ([4]; first compound 0.2 µM) was 0.561. It also gave a relative viability ([4]; first compound 0.6325 µM) of 0.616 and a relative viability ([4]; first compound 2 µM) of 0.637.

NCI-H2405 gave a relative viability ([1]; first compound 0.08 µM) of 0.327, a relative viability ([1]; first compound 0.253 µM) of 0.431 and a relative viability ([1]; first compound 0.8 µM) of 0.39. It also gave a relative viability ([1]; first compound 2.53 µM) of 0.416, a relative viability ([1]; first compound 8 µM) of 0.365 and a relative viability ([2]; first compound 0.02 µM) of 0.627. The relative viability ([2]; first compound 0.2 µM) was 0.64, the relative viability ([2]; first compound 0.6325 µM) was 0.578 and the relative viability ([2]; first compound 2 µM) was 0.745. It also gave a relative viability ([3]; first compound 0.06325 µM) of 0.46, a relative viability ([3]; first compound 0.2 µM) of 0.456 and a relative viability ([3]; first compound 0.6325 µM) of 0.468. It also gave a relative viability ([3]; first compound 2 µM) of 0.308, a relative viability ([4]; first compound 0.02 µM) of 0.812 and a relative viability ([4]; first compound 0.2 µM) of 1.01. For the same cell line, the relative viability ([4]; first compound 0.6325 µM) was 1.12 and the relative viability ([4]; first compound 2 µM) was 1.09.
